Laboratory results taken from publication PMC12299285, “Isolation and Identification of Secondary Metabolites in Rheum tataricum L.fil. Growing in Kazakhstan and Surveying of Its Anticancer Potential” (Molecules, 2025).
Where two headings read alike, the source gives them in different places.

Columns and labels:
[1] = test system: T98G glioblastoma cell line; experiment: MTT cytotoxicity assay, T98G glioblastoma cells; assay type: cell-based, human; conditions: 48 h incubation, three independent experiments, read-out: Growth Inhibition of Cells (GI50 ± SEM) T98G
[2] = test system: Normal epithelial VERO cells; experiment: MTT cytotoxicity assay, normal epithelial VERO cells (non-cancer control); assay type: cell-based, African green monkey; conditions: 48 h incubation, three independent experiments, read-out: Growth Inhibition of Cells (GI50 ± SEM) VERO
[3] = test system: HeLa (HPV18-positive human cervical cancer cell line); experiment: MTT cytotoxicity assay, HeLa cervical cancer cells; assay type: cell-based; conditions: 48 h incubation, three independent experiments, read-out: Growth Inhibition of Cells (GI50 ± SEM) HeLa (HPV-18)
[4] = test system: SNB-19 glioblastoma cell line; experiment: MTT cytotoxicity assay, SNB-19 glioblastoma cells; assay type: cell-based, human; conditions: three independent experiments, read-out: Growth Inhibition of Cells (GI50 ± SEM) SNB-19
[5] = test system: MCF-7 breast adenocarcinoma cells; experiment: MTT cytotoxicity assay, MCF-7 breast adenocarcinoma cells; assay type: cell-based, human; conditions: three independent experiments, read-out: Growth Inhibition of Cells (GI50 ± SEM) MCF-7
[6] = test system: CaSki (HPV16-positive human cervical cancer cell line); experiment: MTT cytotoxicity assay, CaSki cervical cancer cells; assay type: cell-based; conditions: 48 h incubation, three independent experiments, read-out: Growth Inhibition of Cells (GI50 ± SEM) CaSki (HPV-16)
[7] = test system: DU-145 prostate cancer cell line; experiment: MTT cytotoxicity assay, DU-145 prostate cancer cells; assay type: cell-based, human; conditions: three independent experiments, read-out: Growth Inhibition of Cells (GI50 ± SEM) DU-145
[8] = test system: C33 A (HPV-negative human cervical cancer cell line); experiment: MTT cytotoxicity assay, C33 A cervical cancer cells; assay type: cell-based; conditions: read-out: Growth Inhibition of Cells (GI50 ± SEM) C33 A (HPV-Negative)
activated macrophages = test system: activated macrophages; design: method as in PMID 9810263; conditions: in vivo; cited from earlier work
[9] = design: method as in PMID 21725818; conditions: rats; cited from earlier work
[10] = design: method as in PMID 21725818; conditions: mice; cited from earlier work
[11] = Chlorocebus sabaeus, Vero, 48 h
[12] = Homo sapiens, SNB-19, 48 h incubation
[13] = Homo sapiens, MCF7, 48 h, 48 h incubation
[14] = Homo sapiens, DU-145, 48 h incubation
[15] = Homo sapiens, C-33-A, MTT, 48 h incubation, three independent experiments

Row | Compound | GI50 ([1]; Homo sapiens, T98G) [µM] | GI50 [2] [µM] | GI50 [2, 11] [µM] | GI50 ([3]; Homo sapiens, HeLa) [µM] | GI50 [4, 12] [µM] | GI50 ([5]; 48 h incubation) [µM] | GI50 [5, 13] [µM] | GI50 ([6]; Homo sapiens, Ca-Ski) [µM] | GI50 [7, 14] [µM] | also measured
1 | COc1ccc(C=Cc2cc(O)cc(OC3OC(CO)C(O)C(O)C3O)c2)cc1 [Compound 11, 3,5-Dihydroxy-4′-methoxystilbene-3-O-β-D-glucopyranoside] | 18 ± 3.5 | 92 ± 7.9 | > 83 | 17 ± 0.9 | 13 ± 1.1 | 8 ± 1.8 | 7 to 8 | – | – | –
2 | 1-O-Galloyl-β-D-glucopyranose [Compound 6] | – | > 100 | – | – | – | 31 ± 0.7 | – | – | – | GI50 [1]: 21 ± 0.8 µM; GI50 [3]: 29 ± 2.4 µM; GI50 [6]: 18 ± 1.4 µM; GI50 ([4]; 48 h incubation): 26 ± 1.2 µM; GI50 ([7]; 48 h incubation): 67 ± 6.4 µM; GI50 ([8]; MTT, 48 h incubation, three independent experiments): 27 ± 2.6 µM
3 | OC[C@H]1O[C@@H](Oc2ccc(/C=C/c3cc(O)cc(O)c3)cc2)[C@H](O)[C@@H](O)[C@@H]1O [Compound 12, (E)-resveratrol 4′-O-β-D-glucopyranoside] | 21 ± 1.7 | 98 ± 4.8 | > 83 | 18 ± 1.6 | 9.2 ± 0.8 | 7 ± 1.2 | 7 to 8 | – | – | –
4 | C[C@@H](CCc1ccc(O)cc1)O[C@@H]1O[C@H](CO)[C@@H](O)[C@H](O)[C@H]1O [Compound 3, (S)-4-(4-Hydroxyphenyl)-2-butanol 2-β-D-glucopyranoside] | – | – | – | – | – | – | – | – | – | NO production by activated macrophages (activated macrophages): suppressed NO production
5 | C[C@@H](O)CCc1ccc(O)cc1 [Compound 4, (R)-4-(4-Hydroxyphenyl)-2-butanol] | 18 ± 1.1 | > 100 | > 83 | 29 ± 0.7 | 15 ± 0.9 | – | 11 ± 1.4 | 10 ± 0.6 | 21 ± 0.8 | GI50 [8, 15]: 28 ± 0.5 µM
6 | C[C@H](CCc1ccc(O)cc1)O[C@@H]1O[C@H](CO)[C@@H](O)[C@H](O)[C@H]1O [Compound 1, (R)-4-(4-Hydroxyphenyl)-2-butanol 2-β-D-glucopyranoside] | 29 ± 2.5 | > 100 | > 83 | 16 ± 0.8 | 23 ± 4.1 | – | 10 ± 1.8 | 12 ± 0.7 | 21 ± 2.3 | anti-inflammatory actions [9]: anti-inflammatory actions; analgesic actions [10]: significant analgesic actions; GI50 ([8]; Homo sapiens, C-33-A, 48 h): 27 ± 1.4 µM
7 | CC(=O)CCc1ccc(O)cc1 [Compound 9, 4-(4-Hydroxyphenyl)butan-2-one] | 19 ± 0.9 | > 100 | > 83 | 23 ± 3.7 | 33 ± 1.8 | – | 21 ± 2.1 | 20 ± 1.5 | 60 ± 1.7 | GI50 [8, 15]: 19 ± 2.2 µM
8 | C[C@H](O)CCc1ccc(O)cc1 [Compound 5, (S)-4-(4-Hydroxyphenyl)-2-butanol] | – | – | – | – | – | – | – | – | – | NO production by activated macrophages (activated macrophages): suppressed NO production
9 | COc1cccc2c1C(=O)c1c(O)c3c(c(O)c1C2=O)C[C@@](O)(C(=O)CO)C[C@@H]3O[C@H]1C[C@H](N)[C@H](O)[C@H](C)O1 [Doxorubicin, reference compound] | 13 ± 0.5 | – | – | 6.1 ± 0.7 | 7.6 ± 0.7 | – | – | 10.1 ± 0.7 | 15 ± 0.3 | GI50 ([2]; Chlorocebus sabaeus, Vero): 8 ± 1.8 µM; GI50 ([5]; Homo sapiens, MCF7, 48 h incubation): 5.2 ± 0.8 µM
